The text below walks through data of PMC12926040, “ADP-ribose is a competitive inhibitor of methanol dehydrogenases from Bacillus methanolicus” (The Journal of Biological Chemistry, 2025).

For one data set, the system named is BaAlaDH. In words: Inhibition effect of ADPR on type II alcohol dehydrogenases. In kind it is biochemical, Bacillaceae. The note with it: 0.5 mM ADPR, 0.5 mM NAD+.
For data set [1], the target named is T1, glucose dehydrogenase (BmGDH) (Priestia megaterium, UniProt P40288).
T1 construct: made in house; cell-free extract
T1 sequence (P40288 whole entry): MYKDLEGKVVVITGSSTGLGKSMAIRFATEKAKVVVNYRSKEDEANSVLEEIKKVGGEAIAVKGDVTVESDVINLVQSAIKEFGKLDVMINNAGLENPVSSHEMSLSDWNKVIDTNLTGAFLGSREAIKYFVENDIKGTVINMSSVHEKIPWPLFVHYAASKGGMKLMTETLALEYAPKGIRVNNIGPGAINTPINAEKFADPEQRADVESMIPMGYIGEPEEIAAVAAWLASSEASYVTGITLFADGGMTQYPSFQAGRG
Described as above. It is filed as biochemical, Bacillus megaterium IWG3. To be noted: 0.5 mM ADPR, 0.5 mM NAD+.

In a further data set the target is T2, CbFDH (Candida boidinii, UniProt O13437).
T2 construct: made in house; cell-free extract
T2 sequence (O13437 1-364): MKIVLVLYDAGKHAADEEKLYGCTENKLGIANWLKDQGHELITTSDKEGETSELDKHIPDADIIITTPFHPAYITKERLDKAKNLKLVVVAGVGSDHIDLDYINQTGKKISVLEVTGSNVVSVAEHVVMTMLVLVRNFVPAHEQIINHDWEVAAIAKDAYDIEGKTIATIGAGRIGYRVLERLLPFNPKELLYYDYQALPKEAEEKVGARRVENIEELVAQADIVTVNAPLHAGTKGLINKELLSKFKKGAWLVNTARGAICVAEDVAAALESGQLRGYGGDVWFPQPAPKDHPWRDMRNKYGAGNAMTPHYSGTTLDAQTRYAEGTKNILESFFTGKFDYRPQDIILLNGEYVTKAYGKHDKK
The description is as above. It is filed as biochemical. The note with it: 0.5 mM ADPR, 0.5 mM NAD+.

The test system of data set [2] is isopropanol dehydrogenase (IPADHM4). In kind it is biochemical, Brucella suis.
The target in a further data set is ACT (Bacillus methanolicus, UniProt Q8KP10, K162Q/L124I/V88I). The note with it: read-out: KM of ACT for ADPR; Tris-HCl pH 8.0, 5 mM MgCl2, 25 °C. The procedure: The reaction was terminated by adding 10 μl of 3 M H2SO4 after incubation at 25 ° C for 5 min, followed by analysis using HPLC. The kcat and KM values were determined by fitting the initial velocity versus substrate concentration data to the Michaelis-Menten equation using GraphPad Prism.
Reactions were terminated by adding 10 μL of 3 M H2SO4 after incubation at 25 °C for 5 minutes. Data are means ± SDs of three measurements.

For data set [3], the target named is T3, BmMDH2 (Bacillus methanolicus, UniProt I3E949). In words: Isothermal titration calorimetry (ITC) of ADPR binding. The note with it: metal-free BmMDH2. Also noted: species or system Bacillus methanolicus MGA3.
Data set [4] addresses T3, BmMDH2. In words: Effects of NAM, AMP and ADPR (0.3 mM each) on BmMDH2 activity. It is filed as biochemical, Bacillus methanolicus MGA3. To be noted: 3 mM NAD+, 40 mM ethanol.
The target in data set [5] is T4, ADH from Saccharomyces cerevisiae (ScADH) (Saccharomyces cerevisiae, UniProt P00330).
T4 construct: purchased TCI A0200
T4 sequence (P00330 1-348): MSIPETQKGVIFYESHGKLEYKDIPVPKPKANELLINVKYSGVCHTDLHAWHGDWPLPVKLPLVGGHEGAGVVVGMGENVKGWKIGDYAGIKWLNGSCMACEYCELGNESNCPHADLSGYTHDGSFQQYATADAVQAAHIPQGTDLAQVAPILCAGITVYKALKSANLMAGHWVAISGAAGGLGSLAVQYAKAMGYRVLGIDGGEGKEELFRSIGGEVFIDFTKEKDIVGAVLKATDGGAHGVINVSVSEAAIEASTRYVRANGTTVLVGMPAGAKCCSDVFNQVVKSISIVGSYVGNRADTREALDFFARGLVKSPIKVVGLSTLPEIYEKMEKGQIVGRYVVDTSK
The data set is described as follows: Inhibition effect of ADPR on type I alcohol dehydrogenase. In kind it is biochemical. The note with it: 0.5 mM ADPR, 0.5 mM NAD+.

Data set [6] deals with T3, BmMDH2. In words: Kinetic assay of MDHs, ethanol dehydrogenation, NAD+ varied. In kind it is biochemical, Bacillus methanolicus MGA3. To be noted: 1.0 μM ADPR.
Data set [7] concerns the target T3, BmMDH2. The data set is described as follows: Inhibition kinetics of ADPR on formaldehyde reduction (NADH fluorescence). To be noted: read-out: KM of BmMDH2, without ADPR, 0 to 150 μM NADH. In kind it is biochemical, Bacillus methanolicus MGA3. The procedure: Data are shown as means ± SDs (n = 3). Apparent KM values for NAD^+ were determined in the presence of 10 nM ACT (Fig. S6). […] Data are presented as means ± SDs (n = 3). […] The row labels are given as the substance labels. / Panel D: no substance label is printed with the KD and thermodynamic values.

Substrate in data set [8]: NC(=O)c1ccc[n+]([C@@H]2O[C@H](COP(=O)(O)OP(=O)(O)OC[C@H]3O[C@@H](n4cnc5c(N)ncnc54)[C@H](O)[C@@H]3O)[C@@H](O)[C@H]2O)c1
In words: Kinetic assay of MDHs, ethanol dehydrogenation, NAD+ varied. In kind it is biochemical, Bacillus methanolicus MGA3. To be noted: other: in the presence of 10 nM ACT, 40 mM ethanol, pH 8.0, 25.0 °C.

Substrate in data set [9]: NC(=O)c1ccc[n+]([C@@H]2O[C@H](COP(=O)(O)OP(=O)(O)OC[C@H]3O[C@@H](n4cnc5c(N)ncnc54)[C@H](O)[C@@H]3O)[C@@H](O)[C@H]2O)c1
The data set is described as above. It is filed as biochemical, Bacillus methanolicus MGA3. To be noted: other: in the presence of 10 nM ACT, 40 mM ethanol, pH 8.0, 25.0 °C. The procedure:
NAD^+ and NADH used for the kinetic assays were pretreated with ACT as described above. The reaction mixtures for the ethanol dehydrogenation contained 40 mM ethanol, adequate MDHs, and various concentrations of NAD^+ (ranging from 0 to 48 mM). Enzymatic catalytic rates were determined by monitoring the increase in NADH absorbance at 340 nm. To determine the kinetics of BmMDH2 for the reverse direction (formaldehyde reduction), the reaction mixtures contained 1 mM DTT, 100 nM BmMDH2, 20 mM formaldehyde, 0.5 mM MnCl2, and 0 to 150 μM of NADH. The catalytic rates of formaldehyde reduction were measured by monitoring the decrease of NADH fluorescence, using excitation and emission wavelengths of 340 nm and 535 nm, respectively.
The kinetic assays were conducted in 200 μL Tris-HCl buffer (100 mM, pH 8.0) at 25 °C. The reaction mixture contained 40 mM ethanol, 0.5 mM MnCl2, 10 nM ACT, 5 mM MgCl2, adequate MDHs (BmMDH1: 500 nM; BmMDH2: 100 nM; BmMDH2S101G: 100 nM; CnMDH2 CT4: 100 nM), and 0 to 48 mM of NAD^+. […] Data are means ± SDs of three measurements.
This is another data set of the same source.

Regarding adenosine diphosphate ribose [ADPR], the “inhibition by ADPR” value (with BaAlaDH; in data set [1]; against CbFDH; in data set [2]; in [5]) was “None of these enzymes showed significant inhibition” each time. The Michaelis-Menten constant (Km) at ACT is 15.9 µM. In addition, the “binding to EDTA-treated BmMDH2” value on BmMDH2 [3] is given as “no binding”. The “inhibition of BmMDH2 activity” value against BmMDH2 [4] was found to be 72%. The “effect on kinetics of ethanol dehydrogenation” value at BmMDH2 [6] is on record as “decrease in kcat, while KM remained unchanged”.
As to `NC(=O)C1=CN([C@@H]2O[C@H](COP(=O)(O)OP(=O)(O)OC[C@H]3O[C@@H](n4cnc5c(N)ncnc54)[C@H](O)[C@@H]3O)[C@@H](O)[C@H]2O)C=CC1` [NADH], at BmMDH2 [7], the Km stood at 6.7 ± 1.7 µM.

B1: BmMDH2 (Bacillus methanolicus MGA3) (protein)
chain: MTNTQSAFFMPSVNLFGAGSVNEVGTRLADLGVKKALLVTDAGLHGLGLSEKISSIIRAAGVEVSIFPKAEPNPTDKNVAEGLEAYNAENCDSIVTLGGGSSHDAGKAIALVAANGGKIHDYEGVDVSKEPMVPLIAINTTAGTGSELTKFTIITDTERKVKMAIVDKHVTPTLSINDPELMVGMPPSLTAATGLDALTHAIEAYVSTGATPITDALAIQAIKIISKYLPRAVANGKDIEAREQMAFAQSLAGMAFNNAGLGYVHAIAHQLGGFYNFPHGVCNAVLLPYVCRFNLISKVERYAEIAAFLGENVDGLSTYDAAEKAIKAIERMAKDLNIPKGFKELGAKEEDIETLAKNAMKDACALTNPRKPKLEEVIQIIKNAM
B1: the Km in data set [8] was determined as 720 ± 60 µM.

B2: BmMDH1 (Bacillus methanolicus MGA3) (protein)
chain: MTTNFFIPPASVIGRGAVKEVGTRLKQIGAKKALIVTDAFLHSTGLSEEVAKNIREAGVDVAIFPKAQPDPADTQVHEGVDVFKQENCDSLVSIGGGSSHDTAKAIGLVAANGGRINDYQGVNSVEKPVVPVVAITTTAGTGSETTSLAVITDSARKVKMPVIDEKITPTVAIVDPELMVKKPAGLTIATGMDALSHAIEAYVAKGATPVTDAFAIQAMKLINEYLPKAVANGEDIEAREKMAYAQYMAGVAFNNGGLGLVHSISHQVGGVYKLQHGICNSVNMPHVCAFNLIAKTERFAHIAELLGENVAGLSTAAAAERAIVALERINKSFGIPSGYAEMGVKEEDIELLAKNAYEDVCTQSNPRVPTVQDIAQIIKNAM
For B2, the Km in [9] turned out to be 2100 ± 1000 µM.
